Experimental data taken from patent US10774056B2, “Substituted piperazines as selective HDAC1,2 inhibitors” (REGENACY PHARMACEUTICALS, LLC, priority 2016, dated 2020).

Legend:
[1] = system: CYP1A2, CYP2C9, CYP2C19, CYP3A4, CYP2D6; assay: Cyp inhibition in human liver microsomes (all isozymes); format: in vitro ADME
Protocol: For Cyp inhibition, human liver microsomes from BD Gentest were incubated with Compound 028 or Compound 032 (10, 3.33, 1.11, 0.37, 0.12, 0.04, 0.01 μM) and substrate (CYP1A2: Phenacetin at 30 μM; CYP2C9: Diclofenac at 10 μM; CYP2C19: S-Mephenytoin at 35 μM; CYP3A4: Midazolam at 5 μM and Testosterone at 80 μM; CYP2D6: Bufuralol at 10 μM) for the following incubation times: CYP1A2, 2C9, 2D6: 10 minutes, 37° C.; CYP2C19: 45 minutes, 37° C.; CYP3A4: 5 minutes, 37° C. Substrate conversion was measured by liquid chromatography/mass spectrometry/mass spectrometry (LC/MS/MS). Inhibition was calculated by curve fitting in Graph Pad Prism.

hERG = hERG (Homo sapiens (Human), UniProt Q12809); assay: hERG inhibition, whole-cell patch clamp; format: cell-based; details: HEK293 cells stably transfected with hERG, tail current at -50 mV
Protocol: For hERG inhibition assays, the cells used were HEK293 cells stably transfected with hERG (cell line obtained from Cytocentrics Inc. 3463 Magic Drive San Antonio, Tex. 78229). Composition of External Solution: NaCl, 137 mM; KCl, 4 mM; MgCl2, 1.0 mM; CaCl2, 1.8 mM; HEPES 10 mM; Dextrose 11 mM; Adjusted to a pH of 7.4 with NaOH. Composition of Internal Solution: KCl, 130.0 mM; MgCl2, 1.0 mM; HEPES, 5.0 mM; EGTA, 5.0 mM; NaCl 7.0 mM. Adjusted to a pH of 7.2 using KOH. Test Concentrations: 0.1, 1, 10, 100 μM. Vehicle: DMSO. Experiments were performed at 34+/−1° C. Current was recorded using the whole-cell patch clamp technique on the Cytopatch automated platform. hERG current was elicited with the following voltage protocol: hERG current amplitude was measured as the peak current at −50 mV (tail current). […] Each cell served as its own control. Data are presented as the IC50 calculated by non-linear regression analysis.

[2] = Rat cassette dosing pharmacokinetics (IV and PO); format: in vivo; details: male SD rats, plasma
HDAC1 = HDAC1 (Homo sapiens (Human), UniProt Q13547); assay: HDAC enzyme assay; format: biochemical; details: 10 min preincubation, 16 μM substrate
HDAC1, sequence (Q13547 whole entry): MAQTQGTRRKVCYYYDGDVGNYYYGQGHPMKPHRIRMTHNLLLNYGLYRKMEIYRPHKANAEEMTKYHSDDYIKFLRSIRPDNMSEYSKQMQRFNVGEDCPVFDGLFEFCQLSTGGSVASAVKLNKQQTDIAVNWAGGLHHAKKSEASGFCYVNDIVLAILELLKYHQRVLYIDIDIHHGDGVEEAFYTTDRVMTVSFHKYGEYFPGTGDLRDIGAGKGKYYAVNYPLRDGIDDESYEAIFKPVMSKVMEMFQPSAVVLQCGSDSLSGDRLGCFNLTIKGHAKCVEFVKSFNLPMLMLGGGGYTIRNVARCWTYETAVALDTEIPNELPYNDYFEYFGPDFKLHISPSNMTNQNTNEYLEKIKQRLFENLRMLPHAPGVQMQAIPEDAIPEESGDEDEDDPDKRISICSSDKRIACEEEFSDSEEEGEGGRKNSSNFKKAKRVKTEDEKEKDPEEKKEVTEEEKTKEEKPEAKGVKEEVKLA

hERG, sequence (Q12809 whole entry): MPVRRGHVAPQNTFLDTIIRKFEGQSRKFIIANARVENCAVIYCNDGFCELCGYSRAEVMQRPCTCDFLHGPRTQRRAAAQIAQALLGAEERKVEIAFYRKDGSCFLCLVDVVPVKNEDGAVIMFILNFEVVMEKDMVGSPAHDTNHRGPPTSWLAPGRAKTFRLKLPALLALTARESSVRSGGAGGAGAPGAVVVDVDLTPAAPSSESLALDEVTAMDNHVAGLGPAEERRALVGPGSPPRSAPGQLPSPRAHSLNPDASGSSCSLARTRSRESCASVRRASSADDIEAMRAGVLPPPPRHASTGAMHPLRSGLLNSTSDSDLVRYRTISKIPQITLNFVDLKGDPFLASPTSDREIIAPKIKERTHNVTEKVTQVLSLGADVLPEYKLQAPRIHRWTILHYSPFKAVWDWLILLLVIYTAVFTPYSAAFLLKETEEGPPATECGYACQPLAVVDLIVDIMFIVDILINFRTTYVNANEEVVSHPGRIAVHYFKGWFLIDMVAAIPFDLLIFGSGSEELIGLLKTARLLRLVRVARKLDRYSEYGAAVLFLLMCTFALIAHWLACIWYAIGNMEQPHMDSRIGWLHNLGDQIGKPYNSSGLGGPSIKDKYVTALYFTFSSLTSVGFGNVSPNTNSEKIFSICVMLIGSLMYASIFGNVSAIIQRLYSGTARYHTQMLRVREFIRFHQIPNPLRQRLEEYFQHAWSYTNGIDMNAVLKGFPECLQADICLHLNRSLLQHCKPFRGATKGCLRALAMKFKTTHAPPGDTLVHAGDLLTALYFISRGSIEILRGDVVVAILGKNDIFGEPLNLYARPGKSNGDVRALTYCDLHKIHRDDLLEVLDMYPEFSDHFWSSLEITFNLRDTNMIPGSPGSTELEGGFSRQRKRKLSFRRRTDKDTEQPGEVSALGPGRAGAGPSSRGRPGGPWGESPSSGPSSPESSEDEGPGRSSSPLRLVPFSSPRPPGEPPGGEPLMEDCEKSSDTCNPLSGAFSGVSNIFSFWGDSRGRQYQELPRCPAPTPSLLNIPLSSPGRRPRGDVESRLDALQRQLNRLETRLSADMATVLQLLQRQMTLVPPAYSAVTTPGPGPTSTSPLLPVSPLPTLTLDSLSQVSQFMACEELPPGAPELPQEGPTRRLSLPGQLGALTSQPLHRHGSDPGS

IC50 [1]	AUC ([2]; PO 5 mg/kg)	Cmax ([2]; PO 5 mg/kg)	half-life ([2]; PO 5 mg/kg, read-out: PO T1/2 (converted))	bioavailability ([2]; 5 mg/kg, oral AUC to IV AUC, dose adjusted)	IC50 (HDAC1)	SMILES	IC50 (hERG)
> 10 µM	15300 ng·h/mL	944 ng/mL	768 min	170%	–	CN1CCN(c2ncc(C(=O)Nc3cc(-c4cccs4)ccc3N)s2)CC1 [Compound 030]	70 µM
–	–	–	–	–	< 10 nM	Nc1ccc(-c2ccccc2)cc1NC(=O)c1ncc(N2CCNCC2)s1 [Compound 049]	–
